Assay results published in patent US20130029928A1 (priority 2010, published 2013).
Where “and” joins values, the source holds several entries; their conditions need not be identical. Identical values can stand only once. Entries after “also recorded” stand apart in the source; their conditions may differ. Like-named read-outs stand apart in the source and are kept apart here. Marks after values point to notes of the source that are not given here.

Legend:
PANC-1 cells = assay: Western blot of PCNA and cleaved PARP in PANC-1 cells; assay type: cell-based, human; settings: 450 μM, 24 hrs
Description: PCNA is a marker for cell proliferation and cleaved PARP is representative of caspase cleavage and apoptosis. […] Western blot analysis was performed with increasing amounts of protein, ranging between 2 and 20 μg (lanes 1-8). Positive control protein was derived from MCF7 cells (PCNA blot, lane 9) or from HeLa cells treated with staurosporine for 3 hours (Cleaved PARP blot, lanes 9, 10). Levels of total β-Actin are shown as a control for protein loading.
Cells respond to the accumulation of unfolded proteins in the ER by a rescue process called the unfolded protein response (UPR). However, if the unfolded protein accumulation is persistent and the stress cannot be relieved, UPR signalling switches from prosurvival to proapoptotic (Kim (2006)), (Szegezdi (2006)), usually involving processing of caspases (Chang (2006)). Consistent with this hypothesis, CXR1002-treated PANC-1 cells show reduced proliferation and cleavage of the caspase substrate poly-ADP ribose polymerase (PARP) (FIG. 2) in PANC-1 cells.

p21^WAF1 = assay: p21WAF1 transcription reporter (hCG excretion) in A2780/p21WAF1 cells; assay type: cell-based, human; settings: 24 hrs exposure; β-hCG excretion
Hep3B = assay: SRB cytotoxicity assay 48 hr; assay type: cell-based, human; settings: read-out: IC50 Values After 48 Hrs Exposure
Description: (§3) The SRB assay was performed according to the method specified by the NIC/NIH. […] Assay replicates were independent in time and up to 4 replicates were performed per cell line.

PC3 = assay: SRB cytotoxicity assay 48 hr; assay type: cell-based, human; settings: read-out: IC50 Values After 48 Hrs Exposure
Description: as §3

A549 = assay: SRB cytotoxicity assay 48 hr; assay type: cell-based, human; settings: read-out: IC50 Values After 48 Hrs Exposure
Description: as §3

A375 = assay: SRB cytotoxicity assay 48 hr; assay type: cell-based, human; settings: read-out: IC50 Values After 48 Hrs Exposure
Description: as §3

SW1353 = assay: ATP depletion cytotoxicity assay 48 hr; assay type: cell-based, human
Description: (§4) Following exposure to Test Items, the CellTitre-Glo Luminescent Cell Viability Assay to measure ATP content was performed according to the manufacturer's detailed instructions (Promega Corporation, Technical Bulletin No. 288, and Cell notes, Issue 10, 2004).
(§5) Cells were plated at the optimal plating density for that cell line in 96-well plates and allowed to attach overnight. […] Cells were exposed to these compounds in Roswell Park Memorial Institute (RPMI) medium containing 10% Foetal Calf Serum (FCS) and 2 mM Glutamine at 37° C. and 5% CO2 for 48 hours. There were 3 replicates for each test item concentration.
(§6) Following exposure to Test Items, the CellTitre-Glo Luminescent Cell Viability Assay to measure ATP content will be performed according to the manufacturer's detailed instructions (Promega Corporation, Technical Bulletin No. 288, and Cell notes, Issue 10, 2004).

BxPc3 = assay: ATP depletion cytotoxicity assay 48 hr; assay type: cell-based, human
Description: as §4, §5, §6

Capan2 = assay: ATP depletion cytotoxicity assay 48 hr; assay type: cell-based, human
Description: (§7) Assay replicates were independent in time and up to 4 replicates were performed per cell line.
(§8) Cells were plated at the optimal plating density for that cell line in 96-well plates and allowed to attach overnight. The next day, the medium was removed and replaced with fresh medium containing the dose ranges of test items. […] There were 3 replicates for each test item concentration.
as §4
(§9) Cells were plated at the optimal plating density for that cell line in 96-well plates and allowed to attach overnight. The next day, cells were pre-treated with the inhibitors UO126 or LY294002 (see Tables 18 & 20) for 2 hrs, the medium was removed and replaced with fresh medium containing the appropriate dose of the test item. […] Cells were exposed to these compounds in Roswell Park Memorial Institute (RPMI) medium containing 10% Foetal Calf Serum (FCS) and 2 mM Glutamine at 37° C. and 5% CO2 for 48 hours. There were 3 replicates for each test item concentration.
as §6

TOV-21G = assay: ATP depletion cytotoxicity assay 48 hr; assay type: cell-based, human
Description: as §7, §8, §4, §9, §6

CaCo-2 = assay: ATP depletion cytotoxicity assay 48 hr; assay type: cell-based, human
Description: as §7, §8, §4, §9, §6

MDA-MB-157 = assay: ATP depletion cytotoxicity assay 48 hr; assay type: cell-based, human
Description: as §7, §8, §4, §9, §6

HepG2 = assay: ATP depletion cytotoxicity assay 48 hr; assay type: cell-based, human
Description: as §7, §8, §4, §9, §6

U2OS = assay: ATP depletion cytotoxicity assay 48 hr; assay type: cell-based; settings: Homo sapiens, Study CXR0798, read-out: IC50 1
Description: as §3

Canine Hepatocytes = assay: ATP depletion cytotoxicity assay 48 hr; assay type: cell-based; settings: Canis lupus familiaris, Hepatocyte, Study CXR0798, read-out: IC50 1
Description: as §3

[1] = PANC-1 xenograft in female nude mice; assay type: in vivo, nude mouse; settings: female, nude, mouse, plasma, 25 mg/kg; PANC-1 model; 24 hrs post last dose; Day 88
Description: (§1) A further xenograft model was performed using the human pancreatic cell line PANC-1. This tumour is slow growing in vivo. […] For various reasons, animals were lost during the study and the final group sizes were small. […] This experiment is currently being repeated to try to obtain larger group sizes at experimental completion.
(§2) In-life and terminal blood samples taken from the mice were analysed for CXR1002 levels using a validated analytical method. In-life samples averaged 146 μM and terminal blood samples (24 hours post final dose) averaged 474 μM (FIG. 7). Plasma values were higher than the whole blood values. This may be attributed to the duration of dosing. […] Furthermore, the erythrocyte/plasma partitioning coefficient (which measures the amount of drug bound to red cells compared to plasma binding) may contribute to the observed differences.

[2] = system: PANC-1 (pancreas) xenograft tumours; assay: PANC-1 xenograft in female nude mice; assay type: in vivo, nude mouse
Description: as §1, §2

[3] = system: patients with advanced cancer; assay: Phase I study CXR1002-001: anti-tumour response; assay type: in vivo, human
[4] = system: patients with advanced cancer; assay: Phase I study CXR1002-001: plasma HDL-C and LDL-C; assay type: in vivo, human; settings: 6 weeks of treatment, % baseline
Excerpt: Individual patient raw data was captured and represented in graphs as % change from baseline (screening). […] Data represents either mean±SEM values or median, range+individual data points.

[5] = Phase I study CXR1002-001: urinary excretion; assay type: in vivo, human; settings: 24 hour urine post each weekly dose
Water solubility = assay type: physicochemical
Stability / shelf life = assay type: physicochemical
H (chondrosarcoma) = assay: ATP depletion cytotoxicity assay 48 hr; settings: H
Description: as §7, §8
Cells were plated at the optimal plating density for that cell line in 96-well plates and allowed to attach overnight. The next day, cells were pre-treated with the inhibitors UO126 or LY294002 (see Tables 18 & 20) for 2 hrs, the medium was removed and replaced with fresh medium containing the appropriate dose of the test item. […] Cells that were to be treated with DPQ received no pre-treatment. […] There were 3 replicates for each test item concentration.

[6] = ATP depletion, 48 hrs, read-out: IC50 1-4 (independent replicates)

For O=C(O)C(F)(F)C(F)(F)C(F)(F)C(F)(F)C(F)(F)C(F)(F)C(F)(F)F [CXR1002], the “PCNA protein level (cell proliferation marker)” value (PANC-1 cells) was “reduced PCNA levels”, the “cleaved PARP protein level (apoptosis marker)” value (PANC-1 cells) was “increased cleaved PARP” and the “activation of transcription of p21^WAF1” value (p21^WAF1) was “did not activate transcription”. It also gave an IC50 (Hep3B) of 215 ± 28.3 µM, an IC50 (PC3) of 272 ± 40.7 µM and an IC50 (A549) of 230 ± 21.8 µM. For the same compound, the IC50 (A375) was 222 ± 21.2 µM, the IC50 (SW1353; Homo sapiens, SW1353, 48 h, read-out: IC50 1-4 (independent replicates)) was greater than 1000 µM and the IC50 (SW1353; Homo sapiens, SW1353, 48 h, read-out: IC50 Mean) was greater than 1000 µM. The IC50 (SW1353; read-out: IC50 1-4 (independent replicates), ATP depletion, 48 hrs, SW1353) was greater than 1000 µM, the IC50 (BxPc3; [6]) was 350 µM and 400 µM and the IC50 (BxPc3; Homo sapiens, BXPC-3, 48 h, ATP depletion, 48 hrs, read-out: IC50 1-4 (independent replicates)) was 370 µM. For the same compound, the IC50 (BxPc3; Homo sapiens, BXPC-3, 48 h, ATP depletion, 48 hrs, read-out: IC50 Mean) was 373 µM, the IC50 (BxPc3; Homo sapiens, BXPC-3, 48 h, Example 7, 48 hour, CXR1002 0-1 mM, U0126 fixed 10 μM where combined, read-out: IC50) was 381 µM and the IC50 (Capan2; Homo sapiens, Capan-2, 48 h, read-out: IC50 1-4 (independent replicates), ATP depletion, 48 hrs, Capan2) was 850 µM. For the same compound, the IC50 (Capan2; Homo sapiens, Capan-2, 48 h, read-out: IC50 Mean, ATP depletion, 48 hrs, Capan2) was 817 µM, the IC50 (Capan2; read-out: IC50 1-4 (independent replicates), ATP depletion, 48 hrs, Capan2) was 750 µM and the IC50 (TOV-21G; [6]) was 600 µM and 700 µM. For the same compound, the IC50 (TOV-21G; Homo sapiens, TOV21G, 48 h, ATP depletion, 48 hrs, read-out: IC50 1-4 (independent replicates)) was 610 µM, the IC50 (TOV-21G; Homo sapiens, TOV21G, 48 h, ATP depletion, 48 hrs, read-out: IC50 Mean) was 637 µM and the IC50 (TOV-21G; Homo sapiens, TOV21G, 48 h, Example 7, 48 hour, CXR1002 0-1 mM, U0126 fixed 10 μM where combined, read-out: IC50) was 615 µM. For the same compound, the IC50 (CaCo-2; ATP depletion, 48 hrs, CaCo-2, read-out: IC50 1-4 (independent replicates)) was 690 µM and 670 µM, the IC50 (CaCo-2; Homo sapiens, Caco-2, 48 h, ATP depletion, 48 hrs, CaCo-2, read-out: IC50 1-4 (independent replicates)) was 680 µM and the IC50 (CaCo-2; Homo sapiens, Caco-2, 48 h, ATP depletion, 48 hrs, CaCo-2, read-out: IC50 Mean) was 680 µM. For the same compound, the IC50 (CaCo-2; Homo sapiens, Caco-2, 48 h, Example 7, 48 hour, CaCO2, CXR1002 0-1 mM, U0126 fixed 10 μM where combined, read-out: IC50) was 704 µM, the IC50 (MDA-MB-157; Homo sapiens, MDA-MB-157, 48 h, read-out: IC50 1-4 (independent replicates), ATP depletion, 48 hrs, MDA-MB-157) was 670 µM and the IC50 (MDA-MB-157; Homo sapiens, MDA-MB-157, 48 h, read-out: IC50 Mean, ATP depletion, 48 hrs, MDA-MB-157) was 665 µM. The IC50 (MDA-MB-157; read-out: IC50 1-4 (independent replicates), ATP depletion, 48 hrs, MDA-MB-157) was 675 µM and 650 µM, the IC50 (HepG2; Homo sapiens, HepG2, 48 h, read-out: IC50 1-4 (independent replicates)) was 240 µM and the IC50 (HepG2; Homo sapiens, HepG2, 48 h, read-out: IC50 Mean) was 273 µM. The IC50 (HepG2; read-out: IC50 1-4 (independent replicates)) was 230 µM and 350 µM, the IC50 (U2OS) was greater than 1000 µM and the IC50 (Canine Hepatocytes) was 240 µM. The concentration at 24 h [1] was 474 µM, the tumour growth ([2]; 25 mg/kg, 3 times per week) was “substantially delayed tumour growth” and the “Absolute Tumour Volume as a Percentage of Saline Control” value ([2]; PANC-1, 25 mg/kg 3 times per week, Day 82) was 50.13%. The “Terminal CXR1002 plasma levels” value ([2]; PANC-1 model, 24 hrs post last dose, Day 88) was 474 ± 153 µM, the “In-life blood CXR1002 level (average)” value ([2]; PANC-1 model, in-life samples) was 146 µM and the “On-Study Duration” value ([3]; 50 mg/week, pancreatic) was 35 weeks. For the same compound, the “On-Study Duration” value ([3]; 100 mg/week, colorectal) was 20 weeks, the “On-Study Duration” value ([3]; 200 mg/week, anaplastic thyroid, patient remains on study) was 22* weeks and the “On-Study Duration” value ([3]; 200 mg/week, cervical, patient remains on study) was 22* weeks. The best response ([3]; investigator assessment) was “stable disease”, the “duration of stable disease” value ([3]; one patient with pancreatic cancer) was 7 months and the “effect on plasma HDL-C” value [4] was “remains unchanged”. The “effect on plasma LDL-C” value [4] was “lowering effect”, the urinary excretion [5] was “increases with multiple doses” and the solubility in water (Water solubility) was “freely soluble in water; also recorded: highly water soluble”. The stability (Stability / shelf life) was “extremely stable”, the IC50 (H (chondrosarcoma); Example 7, 48 hour, CXR1002 0-1 mM, U0126 fixed 10 μM where combined) was 817 µM and the IC50 (H (chondrosarcoma); read-out: IC50 1-4 (independent replicates), ATP depletion, 48 hrs) was 550 µM and 555 µM and 800 µM. The IC50 (H (chondrosarcoma); read-out: IC50 Mean, ATP depletion, 48 hrs) was 635 µM.
